A short description of assay [1]: Laboratory treatment of corn ethanol syrup with bisulfite in a Parr 4560 reactor; DON measured by NEOGEN VERATOX for DON 2/3 kit. The protocol:
Encouraged by these initial test results, further testing was performed utilizing a design of experiments to determine an equation modeling the effect of time, temperature, and SBS in the treatment of syrup. Syrup from a corn ethanol biorefinery was obtained and processed in the laboratory. All thermal treatments were performed utilizing a Parr 4560 reactor and a combined total of 70 g of syrup and SBS per reaction. Reaction conditions were from 85° C. to 115° C.; for 2 to 6 hours; and 0 to 0.05 g sodium bisulfite per dry gram syrup. The results from this study indicated a correlation between the SBS loading and the reduction in syrup DON. The model predicts a greater than 85% reduction in syrup DON is likely if treatment in a commercial process syrup tank is utilized. It was calculated that at a plant that is currently producing DDGS with 14.5 ppm DON with a 95% reduction in syrup DON would produce DDGS with 4.6 ppm DON.
Syrup from a corn ethanol biorefinery was obtained and processed in the laboratory. Treatment was performed utilizing a Parr 4560 reactor and a combined total of 70 g of syrup and SBS per reaction. The reaction condition was carried out at 50° C. for 120 minutes and varying amounts of sodium bisulfite per dry gram syrup. The DON was measured by NEOGEN™ VERATOX™ for DON 2/3 kit.
Syrup from a corn ethanol biorefinery was obtained and processed in the laboratory. Treatment was performed utilizing a Parr 4560 reactor and a combined total of 70 g of syrup and SBS per reaction. The reaction condition was carried out at 85° C. for 30 minutes to 180 minutes using 0.048 grams sodium bisulfite per dry gram syrup. The DON was measured by NEOGEN™ VERATOX™ for DON 2/3 kit.
Syrup from a corn ethanol biorefinery was obtained and processed in the laboratory using a Parr 4560 reactor and combined with either 0.048 grams of SBS or ammonium bisulfite per dry gram of syrup. Ammonium bisulfite was a 65% aqueous solution of 95% ammonium bisulfite and 5% potassium bisulfite. The doses of the two reagents used were molar equivalent bisulfite doses. The reaction condition was carried out at 85° C. for 30, 60 and 90 minutes.

A short description of assay [2]: DON analysis of DDGS sources and mixed diets of the pig trial. Conditions: treated vs untreated DDGS. The text has this:
A treated mycotoxin in which the DON levels in DON-contaminated DDGS were reduced by the method described in Example 5 (1.5 gallons per minute of a 38% aqueous solution of SBS was supplied continuously into the feed line of the syrup tank) and samples of dried DDGS were collected, analyzed and tested for its effect on pig growth.
A total of 247 growing pigs (55.3±4.6 lb.) were housed at a wean-to-finish facility, randomly allotted to 18 pens (13-14 pigs/pen) containing one 3-hole feeder 2 free-access nipple drinkers, and assigned to one of 3 experimental diets: control, DONDDGS, and treated-DDGS. All experimental diets were corn/soybean meal based containing 30% DDGS (low DON, DON contaminated, and treated DON DDGS, respectively; Table 1).
All diets met or exceeded nutrient requirements for growing pigs based on NRC (2012) and provided ad libitum. Experimental diets were fed for 21 days. Samples of the DDGS and corn used in the diets were analyzed for DON. Samples of the mixed diets were collected at day 0 and 21 and analyzed for proximate analysis and DON.

On to `O=S([O-])O.[Na+]` [SBS, sodium bisulfite], for which the “DON in the treated syrup as SBS dose increased (FIG. 4)” value in assay [1] (50° C., 120 minutes, varying amounts of sodium bisulfite per dry gram syrup) is listed as “reduced”. Further, the “DON in the treated syrup (FIG. 5)” value in assay [1] (85° C., 30 minutes dwell time, 0.048 grams sodium bisulfite per dry gram syrup) is given as “less than 1 ppm”. In addition, the “reduction in syrup DON predicted by the model” value in assay [1] (design-of-experiments model (time, temperature, SBS), treatment in a commercial process syrup tank) is “greater than 85%”. The “DON reduction in the syrup stream” value in assay [1] (syrup treated with SBS at process temperatures for extended time periods) is reported as “greater than 85%”. For the same molecule, the “reduction of DON content in DON-DDGS” value in assay [2] was 37%.

Source of the values: patent publication US11950617B2, “Remediation of toxins in biorefinery process streams” (priority 2017, dated 2024).
